Measured values: patent publication US6555545B2, “Adenosine A2A receptor antagonists for treating and preventing hepatic fibrosis, cirrhosis and fatty liver” (New York University, priority 2000, dated 2003)
Entries after “also recorded” stand apart in the source; their conditions may differ.

Legend:
[1] = tested on: rat hepatic stellate cells (rHSC); assay: Collagen production by immortalized rat hepatic stellate cells (14C-proline pulse, phosphorimager); assay type: cell-based; settings: for collagen production, % of control: n=4; for effect of antagonist on CGS-21680-mediated increase in collagen production (in words): rHSC, CSC 10 micro-M, preincubation four hours
Procedure: To determine whether an increase in adenosine release would promote collagen production, immortalized rat hepatic stellate cells (rHSC, gift from Dr. S. L. Friedman) were incubated with agonists and antagonists at various adenosine receptors, after which collagen production was quantitated. Rat hepatic stellate cells were treated with […] at various concentrations with or without the addition of 10 micro-M adenosine A2A receptor antagonist CSC following pulsing with ^14C-proline. The collagen was extracted by ethanol precipitation and quantified following phosphorimager exposure.
The cAMP/protein kinase A pathway is known to mediate adenosine A2A receptor signal transduction. The effect of protein kinase A inhibition was studied on CGS-21680-mediated collagen production in rHSC. Rat HSC were treated with 10 micromolar CGS-21680 for four hours at 37° C., 5% CO2, with or without the addition of 10 micromolar KT-5720, a protein kinase A inhibitor, and collagen production was extracted by ethanol precipitation and quantified following phosphoimager exposure.

[2] = tested on: human hepatic stellate cells (LX-1); assay: Collagen production by immortalized human hepatic stellate cells; assay type: cell-based
Procedure: Since A2A receptor selectivity of CGS-21680 decreases with increasing concentration, and recruitment of A2B receptor activity is observed with CGS-21680 concentrations above 100 nM, agonistic effects in A2B receptors by high-dose CGS-21680 is likely to be responsible for the decrease in collagen production. This is consistent with Dubey's observations on cardiac fibroblasts that adenosine A2B receptor activation decreases collagen synthesis, Dubey et al., Hypertension 1998; 31(4):943-8. Alternatively, CGS-21680-induced changes in collagen production may be the result of alterations in the expression of collagenase/metalloproteinases (MMP) or their inhibitors, tissue inhibitors of metalloproteinases, TIMP. Adenosine, acting through one of its receptors, most likely the A2B receptor, has been noted to alter metalloproteinase expression (Boyle et al., Arthritis Rheum 1996:39(6):923-30.

[3] = tested on: HepG2 cells; assay: Adenosine release from HepG2 cells, quantitated by HPLC; settings: for effect on adenosine release (in words): pharmacologically relevant concentrations, ethanol up to 80 mg/dl

CCNC(=O)[C@H]1O[C@@H](n2cnc3c(N)nc(NCCc4ccc(CCC(=O)O)cc4)nc32)[C@H](O)[C@@H]1O [CGS-21680]
collagen production, % of control ([1]; 10 micromolar CGS-21680 alone, four hours): 339±99 % of control | increase in collagen production over control ([1]; concentration of 10 mM as printed, n=6, p<0.001): 3223±917% | EC50 ([1]; cultured rat stellate cell line, dose-dependent, read-out: EC50 for promotion of collagen synthesis and release): ~300 nM | maximal promotion of collagen synthesis and release ([1]; cultured rat stellate cell line, p<0.004): ≤ 20 fold | effect on collagen production (in words) ([2]; CGS-21680 concentrations above 100 nM): collagen production by LX-1 decreases | effect on collagen production (in words) ([2]; CGS-21680 concentrations up to 100 nM, dose dependent): increased collagen production

CCO [ethanol]
increase in adenosine release from control ([3]; ethanol 40 mg/dl, three hours): four-fold | adenosine release ([3]; ethanol 40 mg/dl, three hours, n=6, p<0.001 vs control 37±35 nM): 206 ± 79 nM | toxicity to HepG2 cells ([3]; ethanol concentrations greater than 80 mg/dl): toxic to HepG2 cells | effect on adenosine release (in words) [3]: increased adenosine release; also recorded: promote adenosine release | effect of ethanol on adenosine release from methotrexate-treated HepG2 cells ([3]; relevant concentrations of methotrexate, data not shown): further increased adenosine release

Cn1c(=O)c2c(nc(C=Cc3cccc(Cl)c3)n2C)n(C)c1=O [CSC, 8-(3-chlorostyryl)-caffeine]
effect of antagonist on CGS-21680-mediated increase in collagen production (in words) [1]: almost completely blocks; also recorded: almost completely abrogated | effect of antagonist on CGS-21680-induced collagen production (in words) [2]: blocked by CSC

CCCn1c(=O)c2[nH]c(C3CCCC3)nc2n(CCC)c1=O [DPCPX, 8-cyclopentyldipropylxanthine]
effect of antagonist on CGS-21680-mediated increase in collagen production (in words) [1]: little effect; also recorded: minimal inhibitory effects

CCCCCCOC(=O)[C@]1(O)C[C@@H]2O[C@@]1(C)n1c3ccccc3c3c4c(c5c6ccccc6n2c5c31)C(=O)NC4 [KT-5720]
collagen production, % of control ([1]; 10 micromolar CGS-21680 plus 10 micromolar KT-5720, four hours): 181±69 % of control | suppression of the CGS-21680-mediated increase in collagen production ([1]; 10 micromolar KT-5720 with 10 micromolar CGS-21680, four hours, n=4, p<0.013): 47%

CCCn1c(=O)[nH]c(=O)c2[nH]cnc21 [enprofylline]
effect of antagonist on CGS-21680-mediated increase in collagen production (in words) [1]: little effect; also recorded: minimal inhibitory effects

CN(Cc1cnc2nc(N)nc(N)c2n1)c1ccc(C(=O)N[C@@H](CCC(=O)O)C(=O)O)cc1 [methotrexate]
increase in adenosine release vs control ([3]; methotrexate 10 nM, three hours): six-fold | adenosine release ([3]; methotrexate 10 nM, three hours, n=6, p<0.001 vs control 41±39 nM): 242 ± 82 nM | effect on adenosine release (in words) [3]: increased adenosine release; also recorded: promotes adenosine release
